Test results taken from patent publication US7271198B2, “Method of treating autoimmune diseases” (Wake Forest University, priority 2000, dated 2007).
“And” between values parts separate entries of the source, which are not always exact repeats. Equal entries are not always repeated.

Experiments:
cell-surface CD154 = assay: Flow cytometry of cell-surface CD154 and CD3-ε on SLE T cells; type: cell-based, human
Protocol: In agreement with previous work (M. Koshy, et al., J. Clin. Invest. 98, 826 (1996); A. Desai-Mehta, et al., J. Clin. Invest. 97, 2063 (1996)), we find that an increased proportion of SLE T cells express cell-surface CD154 compared to normal and disease controls. To determine if TSA-dependent down-regulation of CD154 mRNA reduces surface expression of CD154, SLE T cells were treated for 18 hr with TSA and the proportion of CD154^+ cells quantified by flow cytometry (E. Hagiwara, et al., Arthritis Rheum. 39, 379 (1996)). […] T cells were stained with saturating concentrations of monoclonal FITC-anti-CD3 and PE anti-CD154 antibodies (Caltag Labs, Burlingame, Calif.) for 30 min at 4° C., and the proportion of cells expressing CD3-ε and CD154 was quantified. In sum, these experiments reveal that TSA down-regulates both CD154 mRNA and protein expression, but not GAPDH mRNA or CD3-ε expression, in SLE T cells.

IFN-γ protein = IFN-γ protein production by SLE T cells (ELISA); type: cell-based, human; settings: SLE T cells activated with PMA+IO 24 hr in presence of TSA; P=0.011
Protocol: To determine whether TSA could down-regulate IL-10, a dose-response analysis was performed. […] However, when SLE T cells were cultured in the presence of TSA for 18 hr, no detectable IL-10 transcripts were identified (FIG. 2C, lanes 3, 6, 9). When IL-10 transcripts from all eight SLE subjects were quantified relative to GAPDH transcripts, TSA inhibited expression of IL-10 mRNA by 71% (FIG. 2D; P=0.029). […] IL-10 and IFN-γ protein production were quantified by ELISA (R & D Systems, Minneapolis, Minn.). […] Thus, like CD154, TSA was able to block expression of IL-10 transcript, abolishing IL-10 production by SLE T cells.
When T cells were activated with PMA+IO for 24 hr, IFN-γ production increased about 24-fold. However, activation of T cells in the presence of TSA further enhanced IFN-γ output by >12-fold (P=0.011) (FIG. 3C).

TGF-β1 gene chromatin = assay: DNase I sensitivity assay of TGF-β1 gene in SLE PBMCs; type: cell-based, human
Protocol: Because nuclease susceptibility is one of the characteristics of active chromatin, a DNase I sensitivity assay was used to examine chromatin conformation of the TGF-β1 gene in SLE PBMCs in the absence or presence of TSA. SLE PBMCs were treated with 1000 ng/ml of TSA for 18 hr, a treatment course shown previously to result in an optimal increase of TGF-β1 mRNA. Equal amounts of purified nuclei isolated from vehicle- or TSA-treated cells were exposed to increasing concentrations of DNase I (FIGS. 7A & 7B). Changes in DNase sensitivity were measured by a DNase I-PCR assay using 0.5 μg of DNA. As shown in the FIG. 7A, the cells treated with only vehicle were relatively resistant to DNase I digestion, even with use of higher concentrations of DNase I (0.25 μg/μl). In contrast, cells treated with TSA were digested in the lower concentration (0.025 μg/μl) of DNase I (FIG. 7B; lanes 3–6). […] There was no change in DNase I sensitivity at the G6PD gene promoter in vehicle- or TSA-treated SLE PBMCs (FIGS. 7A & 7B). Thus, it is likely that Trichostatin A increases DNase I sensitivity in the TGF-β1 gene of SLE PBMCs.

IL-6 protein = IL-6 protein secretion by MRL/lpr splenocytes; type: cell-based, mouse; settings: splenocytes with LPS and IFN-γ 72 hr; stimulated control 34.4±7.6 pg/ml; p=0.002
Protocol: In determining whether TSA or SAHA down-regulate IL-6 mRNA content, splenocytes from 24-wk MRL/lpr mice were treated with increasing concentrations of TSA for 18 hr. […] TSA decreased IL-6 transcript at a concentration of 100 ng/ml and exerted maximal inhibition at 300 ng/ml. To address whether TSA and SAHA down-regulate LPS- and IFN-γ induced IL-6 transcript levels, splenocytes from younger MRL/lpr mice were treated in the absence or presence of TSA or SAHA for 18 hr before LPS and IFN-γ stimulation for 6 or 18 hr. […] Next, the effect of TSA and SAHA on IL-6 protein secretion in stimulated splenocytes was measured (FIG. 10D). When splenocytes were cultured with LPS and IFN-γ for 72 hr, there was a mean (±SEM) 34.4±7.6 pg/ml of IL-6 protein secretion.

IL-10 protein = IL-10 protein secretion by MRL/lpr splenocytes; type: cell-based, mouse; settings: MRL/lpr splenocytes stimulated by LPS, Con A, or LPS+IFN-γ, 72 hr
Description: To determine the effect of TSA and SAHA on IL-10 protein secretion, MRL/lpr splenocytes were stimulated with Con A, LPS, or LPS+IFN-γ for 72 hr in the absence or presence of TSA or SAHA. As shown in the FIG. 11D, splenocytes stimulated with Con A, LPS, or LPS+IFN-γ secreted a mean (±SEM) of 31.8±4.5, 32.3±1.9, and 34.8±4.9 pg/ml, respectively, of IL-10 protein.

MRL/lpr mice = assay: In vivo TSA in 26 week old MRL/lpr mice (5 mg/kg s.c. daily), proteinuria; parameters: species or system mouse
Description: The effect of TSA on proteinuria and nitric oxide secretion and increased survival in 26 week old MRL/lpr mice was examined. In this age group, MRL/lpr mice developed full-blown disease with evidence of proliferative immune-complex-mediated glomerulo-nephritis, vasculitis, arthritis, and massive lymphadenopathy. Most of the mice expired by the age of 30 weeks. […] Urine was collected for a 24 hr time period on days 0, 7 and 14, and measured for protein and nitric oxide. Toxicity of TSA is being assessed by monitoring body weight, infection, abnormal behavior and survival of treated mice.

SMILES: CC(/C=C/C(=O)NO)=C\[C@@H](C)C(=O)c1ccc(N(C)C)cc1 [TSA, Trichostatin A]
- new population of CD154+ cells induced by PMA+IO (cell-surface CD154; SLE T cells pretreated with TSA 1000 ng/ml 18 hr, PMA+IO 24 hr, P=0.005): completely inhibited
- CD3-ε expression (cell-surface CD154; SLE T cells, with or without TSA and PMA+IO): remained stable
- reduction of cell-surface CD154+ cells (cell-surface CD154; non-activated SLE T cells, TSA, over 24 hr, vs untreated): did not effect any significant reduction
- further enhancement of IFN-γ output (IFN-γ protein): > 12 fold
- increase in DNase I sensitivity, TGF-β1 promoter (TGF-β1 gene chromatin; SLE PBMCs, 1000 ng/ml TSA, 18 hr): three-fold
- DNase I sensitivity at the G6PD gene promoter (TGF-β1 gene chromatin; vehicle- or TSA-treated SLE PBMCs): no change
- IL-6 protein secretion (IL-6 protein): no detectable IL-6 protein secretion
- IL-10 protein secretion (IL-10 protein): no detectable IL-10 secretion
- proteinuria in day 7 and day 14 compared to day 0 (MRL/lpr mice; 26 week old MRL/lpr mice, 5 mg/kg TSA s.c. daily, in comparison to vehicle): less proteinuria
- Proteinuria, DAY 0 (MRL/lpr mice; individual 26 week old MRL/lpr mice of TSA group, day 0 (baseline), 24 hr urine): 964 µg/day and 10 µg/day and 16689 µg/day and 213 µg/day and 14420 µg/day and 107 µg/day and 5 µg/day
- Proteinuria, DAY 7 (MRL/lpr mice; individual 26 week old MRL/lpr mice, 5 mg/kg TSA s.c. daily, day 7, 24 hr urine, 5 mg/kg): 340 µg/day and 4.6 µg/day and 274 µg/day and 54 µg/day and 4701 µg/day and 80 µg/day and 9 µg/day
- Proteinuria, DAY 14 (MRL/lpr mice; individual 26 week old MRL/lpr mice, 5 mg/kg TSA s.c. daily, day 14, 24 hr urine, 5 mg/kg): 242 µg/day and 4.3 µg/day and 865 µg/day and 82 µg/day and 3081 µg/day and 25 µg/day and 10 µg/day
